Source: patent US10070646B2, “Tetrazolinone compound and application thereof” (SUMITOMO CHEMICAL COMPANY, LIMITED, priority 2014, dated 2018)

Experiments:
Assay type in all cases: in vivo
[1] = test system: wheat leaf blotch fungus (Septoria tritici); assay: Test Example 3: wheat leaf blotch preventive foliar spray test; details: 500 ppm sprayed on wheat (APOGEE); spores inoculated after 4 days; 3 days at 18° C. high humidity then 14 to 18 days under illumination
Description: Each of plastic pots was filled with soil and wheat (cultivar: APOGEE) was sowed and grown in a greenhouse for 10 days. Then, each water dilution prepared by adjusting so as to contain a predetermined concentration (500 ppm) of the present compound 1 was sprayed over stems and leaves of the wheat so that it sufficiently adhered to the surface of the leaves of the wheat. After spraying, the plant was air-dried. After 4 days, an aqueous suspension containing spores of wheat leaf blotch fungus (Septoria tritici) was sprayed over the wheat to inoculate the spores. After completion of the inoculation, the plant was placed at 18° C. under high humidity condition for 3 days and then placed under illumination for 14 to 18 days, and then the area of lesion was investigated. As a result, the area of lesion on the plant treated with the present compound was 30% or less of that on an untreated plant.

[2] = test system: cucumber powdery mildew fungus (Sphaerotheca fuliginea, a QoI-resistant strain); assay: Test Example 4: cucumber powdery mildew (QoI-resistant strain) foliar spray test; details: 500 ppm sprayed on cucumber (SAGAMI HANJIRO), cytochrome b position 143 glycine to alanine, assessed after 8 days
Description: Each of plastic pots was filled with soil and cucumber (cultivar: SAGAMI HANJIRO) was sowed and grown in a greenhouse for 12 days. Then, each water dilution prepared by adjusting so as to contain a predetermined concentration (500 ppm) of the present compound 1 was sprayed over stems and leaves of the cucumber so that it sufficiently adhered to the surface of the leaves of the cucumber. After spraying, the plant was air-dried and then inoculated by sprinkling with spores of cucumber powdery mildew fungus (Sphaerotheca fuliginea, a QoI-resistant strain in which, among the genes encoding cytochrome b, the amino acid residue at position 143 of cytochrome b is mutated from glycine to alanine). After the inoculation, the plant was cultivated in a greenhouse at 24° C. in the daytime and 20° C. at night for 8 days, and then the area of lesion was investigated. As a result, the area of lesion on the plant treated with the present compound was 30% or less of that on an untreated plant.

[3] = test system: cucumber downy mildew fungus (Pseudoperonospora cubensis); assay: Test Example 8: cucumber downy mildew preventive foliar spray test; details: 200 ppm sprayed on cucumber (SAGAMI HANJIRO); zoospores inoculated after 1 day; one day high humidity then 6 days in greenhouse
Description: (§1) Each of plastic pots was filled with soil and cucumber (cultivar: SAGAMI HANJIRO) was sowed and grown in a greenhouse for 19 days. Then, each water dilution prepared by adjusting so as to contain a predetermined concentration (200 ppm) of the present compound 1 was sprayed over stems and leaves of the cucumber so that it sufficiently adhered to the surface of the leaves of the cucumber. After spraying, the plant was air-dried and then, after 1 day, an aqueous suspension containing zoospores of cucumber downy mildew fungus (Pseudoperonospora cubensis) was sprayed to inoculate the zoospores. After the inoculation, the plant was placed stand at 23° C. for one day under high humidity condition, and then cultivated in a greenhouse at 24° C. in the daytime and 20° C. at night for 6 days, and then the area of lesion was investigated. As a result, the area of lesion on the plant treated with the present compound was 30% or less of that on an untreated plant.

[4] = test system: cucumber anthracnose fungus (Colletotrichum lagenarium); assay: Test Example 7: cucumber anthracnose preventive foliar spray test; details: 50 ppm sprayed on cucumber (SAGAMI HANJIRO); spores inoculated after 1 day; one day high humidity then 6 days in greenhouse
Description: as §1, with “(50” for “(200”, “spores” for “zoospores”, “anthracnose” for “downy mildew”, “(Colletotrichum lagenarium)” for “(Pseudoperonospora cubensis)”, “spores.” for “zoospores.”, “placed” for “placed stand”

[5] = test system: wheat rust fungus (Puccinia recondita); assay: Test Example 5: wheat rust preventive foliar spray test; details: 200 ppm sprayed on wheat (SHIROGANE); spores inoculated after 5 days; one day dark high humidity then 8 days under illumination
Method: Each of plastic pots was filled with soil and wheat (cultivar: SHIROGANE) was sowed and grown in a greenhouse for 9 days. Then, each water dilution prepared by adjusting so as to contain a predetermined concentration (200 ppm) of the present compound 1 was sprayed over stems and leaves of the wheat so that it sufficiently adhered to the surface of the leaves of the wheat. After spraying, the plant was air-dried and cultivated at 20° C. for 5 days under illumination, and then inoculated by sprinkling with spores of wheat rust fungus (Puccinia recondita). After the inoculation, the plant was placed at 23° C. for one day under dark and high humidity condition, and cultivated under illumination at 20° C. for 8 days, and then the area of lesion was investigated. As a result, the area of lesion on the plant treated with the present compound was 30% or less of that on an untreated plant.

[6] = test system: barley net blotch fungus (Pyrenophora teres); assay: Test Example 1: barley net blotch preventive foliar spray test; details: 500 ppm sprayed on barley (MIKAMO GOLDEN) stems and leaves; spores inoculated after 2 days; 3 days high humidity then 7 days in greenhouse
Description: (§2) Each of plastic pots was filled with soil and barley (cultivar: MIKAMO GOLDEN) was sowed and grown in a greenhouse for 7 days. Then, each water dilution prepared by adjusting so as to contain a predetermined concentration (500 ppm) of the present compound 1 was sprayed over stems and leaves of the barley so that it sufficiently adhered to the surface of the leaves of the barley. After spraying, the plant was air-dried. After 2 days, an aqueous suspension containing spores of barley net blotch fungus (Pyrenophora teres) was sprayed to inoculate the spores. After completion of the inoculation, the plant was placed for 3 days in a greenhouse at 23° C. in the daytime and 20° C. at night under high humidity condition and cultivated in a greenhouse for 7 days, and then the area of lesion was investigated. As a result, the area of lesion on the plant treated with of the present compound was 30% or less of that on an untreated plant.

[7] = test system: barley scald fungus (Rhynchosporium secalis); assay: Test Example 6: barley scald preventive foliar spray test; details: 200 ppm sprayed on barley (MIKAMO GOLDEN); spores inoculated after 2 days; 3 days high humidity then 7 days in greenhouse
Description: as §2, with “(200” for “(500”, “scald” for “net blotch”, “(Rhynchosporium secalis)” for “(Pyrenophora teres)”

[8] = test system: kidney bean stem rot fungus (Sclerotinia sclerotiorum); assay: Test Example 2: kidney bean stem rot foliar spray test; details: 500 ppm sprayed on kidney bean (NAGAUZURA SAITOU); hyphae-containing PDA medium placed on leaves after air-drying; assessed four days after inoculation
Description: Each of plastic pots was filled with soil and kidney bean (cultivar: NAGAUZURA SAITOU) was sowed and grown in a greenhouse for 8 days. Then, each water dilution prepared by adjusting so as to contain a predetermined concentration (500 ppm) of the present compound 1 was sprayed over stems and leaves of the kidney bean so that it sufficiently adhered to the surface of the leaves of the kidney bean. After spraying, the plant was air-dried and a PDA medium containing hyphae of the kidney bean stem rot fungus (Sclerotinia sclerotiorum) was placed on the leaves of the kidney bean. After the inoculation, all kidney beans were placed under high humidity condition only at night. Four days after the inoculation, the area of lesion was investigated. As a result, the area of lesion on the plant treated with the present compound was 30% or less of that on an untreated plant.

Measured: area of lesion on the treated plant relative to that on an untreated plant

Cc1cccc(-n2nnn(C)c2=O)c1CSc1ccn(-c2ccc(Cl)cc2)n1 [present compound 1, 1-(2-{[1-(4-chlorophenyl)-1H-pyrazol-3-yl]thiomethyl}-3-methy1phenyl)-4-methyl-1,4-dihydrotetrazol-5-one]
≤ 30%: all assays above
